pIC50: −log10 of the molar value.
Target: T1, FGFR-1 (Homo sapiens, UniProt P11362)
T1 construct: GST; made in house
Experiment: FGFR-1 TR-FRET biochemical assay
Conditions: for IC50: 0.6 uM ATP, 5 nM FGFR1-GST, bounds given in nM; for pIC50: upper bound of the bin 'greater than 100 nM but less than 1 μM' (lower bound in E1)
Procedure: FGFR-1TR-FRET Biochemical Assay
The FGFR-1 Assay was performed on half well 96-well opaque plates (Costar 3915) in a LANCE format. LANCE is a homogenous time resolved fluormetry based application available through Perkin Elmer. For this assay, 50 uL reactions were set up using: 0.6 uM ATP (Sigma), 25 nM poly GT-biotin (CIS BIO International), 2 nM Eu-labelled phospho-Tyr Ab (PY20 PerkinElmer), 10 nM Streptavidin-APC (Perkin Elmer), 5 nM FGFR1-GST (generated by DRT, Bayer Healthcare), 1% DMSO, 50 mM HEPES pH 7.5, 10 mM MgCl2, 0.1 mM EDTA, 0.015% Brij, 0.1 mg/ml BSA, 0.1% B-mercaptoethanol. All reactions were initiated with the addition of enzyme and were left to incubate for one hour at room temperature. Time-resolved fluorescence was then read on a Perkin Elmer VictorV Multilabel counter. The reading protocol uses an excitation wavelength at 340 nm and emission reads at both 615 and 665 nm. Signal was calculated as a ratio: (Flourescence at 665 nm/Flourescence at 615 nM)*10000 for each well. The background control used for this assay is the signal produced with all assay components excluding ATP. For IC50 generation, compounds were added prior to the enzyme initiation. A 50-fold stock plate was made with compounds serially diluted 1:5 in a 50% DMSO/50% dH2O solution. A 1 μL addition of the stock to the assay wells gave final compound concentrations ranging from 10 μM-0.128 nM in 1% DMSO. The data were expressed as percent inhibition: % inhibition=100−((Signal with inhibitor−background)/(Signal without inhibitor−background))*100.

T1 sequence (P11362 22-822): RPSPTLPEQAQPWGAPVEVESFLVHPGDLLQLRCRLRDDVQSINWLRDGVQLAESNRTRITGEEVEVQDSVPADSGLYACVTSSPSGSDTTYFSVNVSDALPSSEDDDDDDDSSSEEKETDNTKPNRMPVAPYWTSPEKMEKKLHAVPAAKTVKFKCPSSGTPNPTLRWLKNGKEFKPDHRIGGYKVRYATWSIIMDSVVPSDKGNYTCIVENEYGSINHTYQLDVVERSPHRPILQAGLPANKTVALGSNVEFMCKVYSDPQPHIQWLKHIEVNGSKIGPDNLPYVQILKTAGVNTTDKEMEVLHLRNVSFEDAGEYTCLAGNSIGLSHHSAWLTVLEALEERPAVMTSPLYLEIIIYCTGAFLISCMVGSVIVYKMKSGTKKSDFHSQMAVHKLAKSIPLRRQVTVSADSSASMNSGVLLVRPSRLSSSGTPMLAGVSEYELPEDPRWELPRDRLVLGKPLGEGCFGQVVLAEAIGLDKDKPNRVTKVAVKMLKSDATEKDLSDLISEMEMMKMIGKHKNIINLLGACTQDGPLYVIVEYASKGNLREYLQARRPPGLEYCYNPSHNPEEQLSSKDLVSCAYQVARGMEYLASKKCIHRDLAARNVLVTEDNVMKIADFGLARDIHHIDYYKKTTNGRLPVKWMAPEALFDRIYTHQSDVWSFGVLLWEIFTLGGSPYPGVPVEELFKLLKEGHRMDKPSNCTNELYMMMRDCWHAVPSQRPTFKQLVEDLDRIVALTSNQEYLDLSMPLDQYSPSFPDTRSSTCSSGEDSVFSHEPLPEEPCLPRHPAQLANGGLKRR

IC50 | pIC50 | Compound
10 to 100 nM | – | Nc1ncnn2c(CN3CCOCC3)cc(-c3ccc(NC(=O)Nc4cccc(C(F)(F)F)c4F)cc3)c12 [Example 58, N-{4-[4-amino-7-(morpholin-4-ylmethyl)pyrrolo[2,1-f][1,2,4]-triazin-5-yl]phenyl}-N′-[2-fluoro-3-(trifluoromethyl)phenyl]urea]
10 to 100 nM | – | Nc1ncnn2c(CC3CNCCO3)cc(-c3ccc(NC(=O)Nc4cccc(C(F)(F)F)c4)c(F)c3)c12 (stereo not shown) [Example 301, N-{4-[4-amino-7-(morpholin-2-ylmethyl)pyrrolo[2,1-f][1,2,4]triazin-5-yl]-2-fluorophenyl}-N′-[3-(trifluoromethyl)phenyl]urea]
< 10 nM | – | CC(C)(C)c1ccnc(NC(=O)Nc2ccc(-c3cc(CN4CCOCC4)n4ncnc(N)c34)cc2)c1 [Example 53, N-{4-[4-amino-7-(morpholin-4-ylmethyl)pyrrolo[2,1-f][1,2,4]triazin-5-yl]phenyl}-N′-(4-tert-butylpyridin-2-yl)urea]
< 10 nM | – | Nc1ncnn2c(CN3CCNC(=O)C3)cc(-c3ccc(NC(=O)Nc4cc(C(F)(F)F)ccn4)cc3)c12 [Example 41, N-(4-{4-amino-7-[(3-oxopiperazin-1-yl)methyl]pyrrolo[2,1-f][1,2,4]triazin-5-yl}phenyl)-N′-[4-(trifluoromethyl)pyridin-2-yl]urea]
< 10 nM | – | CS(=O)(=O)N1CCC(c2cc(-c3ccc(NC(=O)Nc4cc(C(F)(F)F)ccc4F)c(F)c3)c3c(N)ncnn23)C1 (stereo not shown) [Example 201, N-(4-{4-amino-7-[1-(methylsulfonyl)pyrrolidin-3-yl]pyrrolo[2,1-f][1,2,4]triazin-5-yl}-2-fluorophenyl)-N′-[2-fluoro-5-(trifluoromethyl)phenyl]urea]
10 to 100 nM | – | Nc1ncnn2c(C(=O)CO)cc(-c3ccc(NC(=O)Nc4cc(C(F)(F)F)ccc4F)c(F)c3)c12 [Example 234, N-[4-(4-amino-7-glycoloylpyrrolo[2,1-f][1,2,4]triazin-5-yl)-2-fluorophenyl]-N′-[2-fluoro-5-(trifluoromethyl)phenyl]urea]
< 10 nM | – | Nc1ncnn2c(CN3CCOCC3)cc(-c3ccc(NC(=O)Nc4ccc(F)c(C(F)(F)F)c4)nc3)c12 [Example 18, N-{5-[4-amino-7-(morpholin-4-ylmethyl)pyrrolo[2,1-f][1,2,4]triazin-5-yl]pyridin-2-yl}-N′-[4-fluoro-3-(trifluoromethyl)phenyl]urea]
< 10 nM | – | Nc1ncnn2c(CCCN3CCCOCC3)cc(-c3ccc(NC(=O)Nc4cc(C(F)(F)F)ccc4F)c(F)c3)c12 [Example 193, N-(4-{4-amino-7-[3-(1,4-oxazepan-4-yl)propyl]pyrrolo[2,1-f][1,2,4]triazin-5-yl}-2-fluorophenyl)-N′-[2-fluoro-5-(trifluoromethyl)phenyl]urea]
< 10 nM | – | Nc1ncnn2c(CN3CCS(=O)(=O)CC3)cc(-c3ccc(NC(=O)Nc4cc(C(F)(F)F)ccc4F)c(F)c3)c12 [Example 79, N-(4-{4-amino-7-[(1,1-dioxidothiomorpholin-4-yl)methyl]pyrrolo[2,1-f][1,2,4]triazin-5-yl}-2-fluorophenyl)-N′-[2-fluoro-5-(trifluoromethyl)phenyl]urea]
> 100 nM | > 6.00 | Nc1ncnn2c(CN3CCOCC3)cc(-c3ccc(NC(=O)Nc4ccc(Cl)cn4)cc3)c12 [Example 63, N-{4-[4-amino-7-(morpholin-4-ylmethyl)pyrrolo[2,1-f][1,2,4]triazin-5-yl]phenyl}-N′-(5-chloropyridin-2-yl)urea]
10 to 100 nM | – | Cc1cc(NC(=O)Nc2cc(C(F)(F)F)ccc2F)c(F)cc1-c1cc(CN2CCOCC2)n2ncnc(N)c12 [Example 136, N-{4-[4-amino-7-(morpholin-4-ylmethyl)pyrrolo[2,1-f][1,2,4]triazin-5-yl]-2-fluoro-5-methylphenyl}-N′-[2-fluoro-5(trifluoromethyl)-phenyl]urea]
10 to 100 nM | – | Cc1ccnc(NC(=O)Nc2ccc(-c3cc(CN4CCOCC4)n4ncnc(N)c34)cc2Cl)c1 [Example 133, N-4-[4-amino-7-(morpholin-4-ylmethyl)pyrrolo[2,1-f][1,2,4]triazin-5-yl]-2-chlorophenyl-N′-(4-methylpyridin-2-yl)urea]
< 10 nM | – | Nc1ncnn2c(CN3CCOCC3)cc(-c3ccc(NC(=O)Nc4cc(C(F)(F)F)ccc4Cl)cc3)c12 [Example 52, N-{4-[4-amino-7-(morpholin-4-ylmethyl)pyrrolo[2,1-f][1,2,4]triazin-5-yl]phenyl}-N′-[2-chloro-5-(trifluoromethyl)phenyl]urea]
> 100 nM | > 6.00 | CC(C)(C)c1ccccc1NC(=O)Nc1ccc(-c2cc(CN3CCOCC3)n3ncnc(N)c23)cc1 [Example 49, N-{4-[4-amino-7-(morpholin-4-ylmethyl)pyrrolo[2,1-f][1,2,4]triazin-5-yl]phenyl}-N′-(2-tert-butylphenyl)urea]
10 to 100 nM | – | Nc1ncnn2c(CN3CCN(S(=O)(=O)CC(F)(F)F)CC3)cc(-c3ccc(NC(=O)Nc4cc(C(F)(F)F)ccc4F)cc3)c12 [Example 86, N-{4-[4-amino-7-({4-[(2,2,2-trifluoroethyl)sulfonyl]piperazin-1-yl}methyl)pyrrolo[2,1-f][1,2,4]triazin-5-yl]phenyl}-N′-[2-fluoro-5-(trifluoromethyl)phenyl]urea]
< 10 nM | – | Nc1ncnn2c(CCCN3CCOCC3)cc(-c3cc(F)c(NC(=O)Nc4cc(C(F)(F)F)ccc4F)cc3F)c12 [Example 190, N-{4-[4-amino-7-(3-morpholin-4-ylpropyl)pyrrolo[2,1-f][1,2,4]triazin-5-yl]-2,5-difluorophenyl}-N′-[2-fluoro-5-(trifluoromethyl)phenyl]urea]
10 to 100 nM | – | Nc1ncnn2c(CCCN3CCSCC3)cc(-c3ccc(NC(=O)Nc4cc(C(F)(F)F)ccc4F)c(F)c3)c12 [Example 196, N-{4-4-[4-amino-7-(3-thiomorpholin-4-ylpropyl)pyrrolo[2,1-f][1,2,4]triazin-5-yl]-2-fluorophenyl}-N′-[2-fluoro-5-(trifluoromethyl)phenyl]urea]
< 10 nM | – | COC[C@@H]1CCCN1CCCc1cc(-c2ccc(NC(=O)Nc3cc(C(F)(F)F)ccc3F)c(F)c2)c2c(N)ncnn12 [Example 184, N-[4-(4-amino-7-{3-[(2S)-2-(methoxymethyl)pyrrolidin-1-yl]propyl}pyrrolo[2,1-f][1,2,4]triazin-5-yl)-2-fluorophenyl]-N′-[2-fluoro-5-(trifluoromethyl)phenyl]urea]
< 10 nM | – | Nc1ncnn2c(CN3CCOCC3)cc(-c3ccc(NC(=O)Nc4cc(C(F)(F)F)ccc4F)c(Cl)c3)c12 [Example 128, N-4-[4-amino-7-(morpholin-4-ylmethyl)pyrrolo[2,1-f][1,2,4]triazin-5-yl]-2-chlorophenyl-N′-[2-fluoro-5-(trifluoromethyl)phenyl]urea]
> 100 nM | > 6.00 | Nc1ncnn2c(CN3CCOCC3)cc(-c3ccc(NC(=O)Nc4ccc(F)cn4)cc3)c12 [Example 55, N-{4-[4-amino-7-(morpholin-4-ylmethyl)pyrrolo[2,1-f][1,2,4]-triazin-5-yl]phenyl}-N′-(5-fluoropyridin-2-yl)urea]
< 10 nM | – | Nc1ncnn2c(CN3CCOCC3)cc(-c3ccc(NC(=O)Nc4cccc(Br)c4)c(F)c3)c12 [Example 67, N-4-[4-amino-7-(morpholin-4-ylmethyl)pyrrolo[2,1-f][1,2,4]triazin-5-yl]-2-fluorophenyl-N′-(3-bromophenyl)urea]
< 10 nM | – | Nc1ncnn2c(CN3CCNC(=O)C3)cc(-c3ccc(NC(=O)Nc4cc(C(F)(F)F)ccn4)c(F)c3)c12 [Example 163, N-(4-{4-amino-7-[(3-oxopiperazin-1-yl)methyl]-pyrrolo [2,1-f][1,2,4]triazin-5-yl}-2-fluorophenyl)-N′-[4-(trifluoromethyl)-pyridin-2-yl]urea]
< 10 nM | – | Nc1ncnn2c(C3CCN(C(=O)CO)CC3)cc(-c3ccc(NC(=O)Nc4cc(C(F)(F)F)ccc4F)c(Cl)c3)c12 [Example 173, N-{4-[4-amino-7-(1-glycoloylpiperidin-4-yl)pyrrolo[2,1-f][1,2,4]triazin-5-yl]-2-chlorophenyl}-N′-[2-fluoro-5-(trifluoromethyl)phenyl]urea]
10 to 100 nM | – | CC(C)(C)NC(=O)N1CCC(c2cc(-c3ccc(NC(=O)Nc4cc(C(F)(F)F)ccn4)c(F)c3)c3c(N)ncnn23)CC1 [Example 124, 4-4-amino-5-[3-fluoro-4-([4-(trifluoromethyl)pyridin-2-yl]carbamoylamino)phenyl]pyrrolo[2,1-f][1,2,4]triazin-7-yl-N-tert-butylpiperidine-1-carboxamide]
< 10 nM | – | CC(C)(C)c1cc(NC(=O)Nc2ccc(-c3cc(CN4CCOCC4)n4ncnc(N)c34)cc2)on1 [Example 2, N-{4-[4-amino-7-(morpholin-4-ylmethyl)pyrrolo[2,1-f][1,2,4]triazin-5-yl]phenyl}-N′-(3-tert-butylisoxazol-5-yl)urea]
